Results published in patent publication US20240366555A1, “SELECTIVE MTORC2 INHIBITOR AND USES THEREOF” (ALIAD BIOPHARMA, priority 2021, published 2024).

Experiments:
[1] = target: mTORC2 (Homo sapiens, UniProt P42345); assay: In vitro mTORC2 kinase assay (GST-Akt Ser473 phosphorylation, immunoblot); type: biochemical; design: mTORC was isolated by co-immunoprecipitation using Flag antibody; made in house; host or cells: HEK 293T transfected with Flag-mLST8; details: for reduction of GST-Akt Ser473 phosphorylation by mTORC2: FIG. 6a
Description: After introducing Flag-mLST8 into a human cell line 293T, mTORC was isolated by co-immunoprecipitation using Flag antibody. In the in vitro mTORC2 kinase assay, the activity of the isolated mTORC2 was evaluated by measuring phosphorylation of GST-Akt Ser473, which is a selective substrate of mTORC2 by immunoblot analysis. In the control group in which Flag-mLST8 was not introduced, GST-Akt Ser473 phosphorylation was almost not measured. […] Therefore, it was judged that GST-Akt Ser473 phosphorylation measured in the in vitro mTORC2 kinase assay was generated by mTORC2. In order to evaluate the inhibitory effect of norathyriol and athyriol on mTORC2 activity, norathyriol or athyriol was pretreated for 15 minutes, and then in vitro mTORC2 kinase assay was carried out.
More specifically, the HEK 293T cells were cultured in a DMEM culture medium in which 10% heat inactivated FBS+1× Glutamax was added. 8×10^5 HEK 293T cells were seeded in a 100 mm culture dish, and then they were cultured for 1 day. After mixing 42 μl Lipofectamine, 21 μl plus reagent, and 21 μg Flag-mLST8 plasmid DNA to 1 ml OPTI-MEM, it was shaken at a room temperature for 25 minutes to prepare a transfection DNA mixture. The transfection DNA mixture was slowly treated on the cells drop by drop, and after culturing for 5 hours, the culture medium was replaced with a new culture medium. After additional culturing for 48 hours, the cells were […] with CHAPS buffer (50 mM HEPES (pH7.4), 100 mM NaCl, 2 mM EDTA, 0.3% CHAPS, 10 mM sodium pyrophosphate, 10 mM sodium β-glycerophosphate, 1 mM PMSF, 1 μg/ml leupeptin, 1 μg/ml pepstatin A, 10 nM aprotinin, 1 mM Na3VO4, 10 nM calyculin A), and centrifuged at 4° C. at 13,000 rpm for 10 minutes to obtain the supernatant and acquire cell lysate. The protein concentration of the cell lysate was determined with BCA protein assay kit (Thermo Fisher Scientific). After adding anti-Flag M2 affinity gel (50% slurry, Sigma) of 30 μl to the cell lysate of 1 mg, it was shaken at 4° C. for 3 hours. After that, affinity gel was washed with CHAPS buffer 3 times and kinase buffer (50 mM HEPES (pH7.5), 2 mM DTT, 10 mM MnCl2, 10 mM MgCl2) for washing once. After adding kinase buffer [-substrate-ATP] […] After that, kinase buffer (50 mM HEPES (pH7.5), 2 mM DTT, 10 mM MgCl2, 10 mM MnCl2, 1 mM ATP, 500 ng GST-AKT, 10 nM calyculin A) of 10 μl was added and shaken at 30° C. for 45 minutes to progress a kinase reaction. […] Ser473 phosphorylation of GST-AKT, which is a substrate of mTORC2, was measured by performing immunoblot analysis using AKT antibody (#4691, Cell signaling) and phospho Ser473 AKT antibody (#4060, Cell signalig). In order to measure the mTORC2 activity inhibitory effect by the compound, both the kinase buffer [-substrate-ATP] and the kinase buffer included the compound.

[2] = test system: Pten KO mice; assay: Y-type maze test in Pten KO mice; type: in vivo; details: 5 or 10 mg/kg intraperitoneally for 14 days, FIG. 1a
Description: As Pten KO mice, Ptenf/f_cre/cre KO mice or Ptenf/f_cre/++ Het mice (KD) were obtained by mating Pten floxed/floxed mice and CAMKII-cre mice. DMSO or athyriol was intraperitoneally injected at 5 or 10 mg/kg for 2 weeks from the age of mice of 6 weeks, and a behavioral test was performed in 7 days after administration. Pten floxed/floxed mice were used as littermates of the same age as a normal control group.
A Y-maze was performed in a Y-shaped structure maze made of black acrylic material in which an angle of each arm was 120°, and a light and a cam were installed on the ceiling, and it was checked that white mice entered each arm while the surroundings were covered with a curtain. Through this, short-term memory was analyzed. In order to adapt mice to the environment, they were acclimated to the experimental space for 30 minutes. The mice were placed at one end of the maze and allowed to move freely for 12 minutes. Accuracy was measured by dividing time into 8 minutes, 10 minutes and 12 minutes. When the four paws of the mice entered the entrance, it was considered as completely entered. The percentage of accuracy was calculated as the number of times which a mouse entered each maze without repetition. The number of times entering each of three different arms was divided by the total number of times entering arms-2 and converted into a percentage for datafication. […]

[3] = test system: Arc protein expression; assay: mGluR-dependent Arc protein expression in cerebral neurons; type: cell-based
Description: When mGluR is activated in dendritic spines of cerebral neurons, Arc protein is synthesized, and the Arc protein promotes endocytosis of an AMPA receptor to form LTD.
Specifically, DHPG was treated to cerebral neurons, which were obtained by primary culture of white mouse embryo E16 cerebral regions and differentiated for […] (DIV21), for 5 minutes or 10 minutes to activate mGluR. As an Arc antibody, Arc protein (green) and PSD95 (red), which is a marker antibody of postsynaptic density of a synapse, were under
After double immunofluorescent staining of Arc protein with an Arc antidody (green) and PSD95, a marker of postsynaptic density of synapse, with an PSD95 antibody (red), Arc expression in dendritic spines was quantified as the number of Arc+PSD95 double stained puncta per 20 μm neurite length by confocal scanning microscopic scanning.

[4] = test system: mTORC2 signaling (FHRE dependent gene expression); assay: FHRE-luciferase reporter analysis in A549; type: cell-based, human; details: A549 cells, treated for 24 hours; FIG. 7d
Source text: mTORC2 activates SGK3, and SGK3 phosphorylates Fox03a, allowing Fox03a to remain in the cytoplasm. When mTORC2 is inhibited, Fox03a is dephosphorylated and translocated to the nucleus, and in the nucleus, it binds to FHRE located in a gene promoter to induce gene expression. Therefore, the change in the intracellular location of Fox03a and FHRE dependent gene expression become indicators for evaluating mTORC2 activity. In order to evaluate the effect of norathyriol on the mTORC2 activity, norathyriol was treated to A549, and then expression of an FHRE-synthetic luciferase gene was investigated by luciferase reporter analysis.
Specifically, A549 cells of 2×10^5 were seeded in a 35 mm culture dish and cultured for 1 day, and then a 2.5 μg FHRE-Luc plasmid and a 0.1 μg renilla luciferase plasmid were introduced by a transfection method using Lipofectamine LTX reagent (Thermofisher). After 18 hours, norathyriol was treated for 24 hours. Luciferase assay was performed with Dual Luciferase Reporter Assay System (Promega) according to the manufacturer's instructions.

COc1cc(O)c2c(=O)c3cc(O)c(O)cc3oc2c1 [athyriol, 1,6,7-Trihydroxy-3-methoxy-9H-xanthen-9-on]
inhibition at 20 µM ([1]; 20 μM, FIG. 6b): 59%
inhibition at 40 µM ([1]; 40 μM, FIG. 6b): 67%
short-term memory in Y-type maze test [2]: recovered almost to the level of the normal control group

O=c1c2cc(O)c(O)cc2oc2cc(O)cc(O)c12 [norathyriol, 1,3,6,7-tetrahydroxy-9H-xanthen-9-one]
increase of Arc protein synthesis (immunoblot of cell lysate) ([3]; DHPG-induced, FIG. 12b): inhibited in a dose-dependent manner
Arc synthesis in dendritic spines (immunofluorescent staining) ([3]; pretreated for 2 hours before treating DHPG, FIG. 12a): the increase of Arc synthesis by DHPG was not found
reduction of GST-Akt Ser473 phosphorylation by mTORC2 ([1]; 5 μM): ≥ 20%
reduction of GST-Akt Ser473 phosphorylation by mTORC2 ([1]; 40 μM): 50%
inhibition at 40 µM ([1]; 40 μM, FIG. 6b): 46%
IC50 ([1]; in vitro mTORC2 kinase assay): 40 µM
expression of the FHRE-synthetic luciferase gene [4]: increased by twice or more
